Laboratory results: patent publication US20100056522A1, “INTRAOCULAR PRESSURE-LOWERING AGENT COMPRISING COMPOUND HAVING HISTONE DEACETYLASE INHIBITOR EFFECT AS ACTIVE INGREDIENT” (Santen Pharmaceutical Co., Ltd., priority 2007, published 2010)

Legend:
[1] = tested on: HDAC (HeLa nuclear extract); assay: Test for evaluation of an HDAC inhibitory effect (HDAC Fluorimetric Assay/Drug Discovery Kit, Biomol); type: biochemical; settings: final concentration of test compound 30 μM, rates of more than 100% are shown as 100%
Experimental: Using HDAC Fluorimetric Assay/Drug Discovery Kit (manufactured by Biomol), an HDAC inhibitory effect of the present compounds was measured according to the protocol included with the kit. The kit contains Buffer, HeLa nuclear extract (includes an HDAC), Substrate, Developer and Trichostatin A (an HDAC inhibitor).
A test compound was dissolved in dimethyl sulfoxide, whereby a 2 mg/mL solution was prepared. Then, the resulting solution was diluted with Buffer containing 5% dimethyl sulfoxide, whereby a 150 μM test compound solution was prepared.
1) To a 384-well culture plate, the test compound solution was added in an amount of 2 μL per well.
2) HeLa nuclear extract was diluted 30-fold with Buffer. The resulting solution was added in an amount of 3 μL per well and then, incubation was performed at 37° C. for 2 hours.
3) Substrate was diluted 500-fold with Buffer. The resulting solution was added in an amount of 5 μL per well (the final concentration of the test compound was 30 μM) and then, incubation was performed at 37° C. for 10 minutes.
4) Developer was diluted 20-fold with Buffer and Trichostatin A (2 μM) was added to it. The resulting solution was added in an amount of 10 μL per well and then, incubation was performed at room temperature for 15 minutes.
5) The fluorescence intensity of each well was measured using multilabel counter ARVO (manufactured by Wallac) with excitation at 360 nm and emission at 460 nm.
6) A control data was obtained from the same experiment except that Buffer containing 5% DMSO was added instead of the test compound solution as the above-mentioned procedure from 1) to 5).
7) A blank data was obtained from the same experiment except that Buffer containing 5% DMSO was added instead of the test compound solution and that Buffer was added instead of Hela nuclear extract as the above-mentioned procedure from 1) to 5).
Enzyme inhibitory rate (%) was calculated using the following equation.
(Enzyme Inhibitory Rate(%))=100×[1−{(Fluorescence Intensity of Test Compound Solution)−(Florescence Intensity of Blank)}/{(Florescence Intensity of Control)−(Florescence Intensity of Blank)}]

[2] = tested on: TM-1 cells (human trabecular meshwork cell line); assay: Test for evaluation of effect of morphological change on trabecular meshwork cells (cell shape index); type: cell-based; settings: 10 μM, 24 hours, control CSI 0.679, lower CSI indicates greater morphological change
Experimental: As a method for evaluating a cellular morphological change, an evaluation system using the cell shape index (hereinafter referred to as “CSI”) as an index has been reported in The Journal of Clinical Investigation, 103, 1141-1150 (1999). Therefore, according to the method described in the above document, an effect of morphological change by the present compounds on trabecular meshwork cells was evaluated.
A human trabecular meshwork cell line (hereinafter referred to as “TM-1 cells”) reported in Investigative Opthalmology & Visual Science, 43, 151-161 (2002) was used.
Culture medium 1: A reagent was prepared by adding fetal bovine serum (10%), L-glutamine (2 mM), amphotericin B (2.5 μg/mL), and gentamicin (25 μg/mL) to Dulbecco's Modified Eagle Medium (hereinafter referred to as “D-MEM”).
Culture medium 2: Fetal bovine serum (3%), L-glutamine (2 mM), amphotericin B (2.5 μg/mL), and gentamicin (25 μg/mL) were added to D-MEM.
Cell staining liquid: A mixed liquid of Calcein-AM (16 μM) and Hoechst 33342 (40 μM) was prepared by diluting a Calcein-AM solution (cytoplasmic staining reagent, manufactured by Dojindo Laboratories) and a Hoechst 33342 solution (nuclear staining reagent, manufactured by Dojindo Laboratories) with D-MEM containing L-glutamine (2 mM), amphotericin B (2.5 μg/mL), and gentamicin (25 μg/mL).
TM-1 cells subcultured at 37° C. in a 8% carbon dioxide gas atmosphere were treated with a trypsin/EDTA solution (0.05% trypsin and 0.53 mM tetrasodium ethylenediaminetetraacetate) at 24 hours before performing a drug treatment mentioned below and seeded on a 96-well culture plate. The culture medium 1 was used for the subculture of the cells. The culture medium 2 was used for the cell culture after seeding the cells on the plate.
A test compound was dissolved in dimethyl sulfoxide, whereby a 5 mM solution was prepared. Then, the resulting solution was diluted with the culture medium 2, whereby a 200 μM test compound solution was prepared.
It has been reported that Y-27632 which is a Rho kinase inhibitor induces a morphological change in trabecular meshwork cells in Investigative Opthalmology & Visual Science, 42, 137-144 (2001). Therefore, Y-27632 (produced according to the method described in WO 90/05723) was used as a positive control, and dissolved in dimethyl sulfoxide in the same manner as the test compound, whereby a 5 mM solution was prepared, and then, the resulting solution was diluted with the culture medium 2, whereby a 200 μM positive control compound solution was prepared.
1) To a 96-well culture plate, a solution of TM-1 cells adjusted to a cell density of […] was added in an amount of 95 μL (1.5×10^4 cells) per well.
2) Incubation was performed at 37° C. in a 8% carbon dioxide gas atmosphere for 24 hours.
3) The test compound solution or positive control compound solution was added in an amount of 5 μL per well (the final concentration of the test compound or positive control compound was 10 μM). As a control, the culture medium 2 containing dimethyl sulfoxide (4%) was added in an amount of 5 μL per well.
4) Incubation was performed at 37° C. in a 8% carbon dioxide gas atmosphere for 24 hours.
5) The cell staining liquid was added in an amount of 10 μL per well.
6) Incubation was performed at 37° C. in a 8% carbon dioxide gas atmosphere for 1 hour to stain the cells.
7) A 37% formaldehyde solution was added in an amount of 10 μL per well.
8) Incubation was performed at room temperature for 1 hour to fix the cells.
9) Washing with phosphate-buffered saline was performed.
10) Using Array Scan Vti HCS reader (manufactured by Cellomics), images of stained cells magnified with a 20-fold objective lens were captured in 80 fields (10 fields×8 wells) per test compound addition group.
11) CSI was calculated for each cell and an average value was obtained for each test compound addition group.
CSI was calculated using the following equation.
CSI=4π×(Cell Area)/(Cell Perimeter)^2

[3] = tested on: male Japanese White rabbits; assay: Test for evaluation of intraocular pressure-lowering effect by intracameral administration; type: in vivo; settings: 1 mM administration liquid, 20 μL intracameral, 8 or 9 hours after administration, vs vehicle control group, 6 cases
Experimental: In order to evaluate an intraocular pressure-lowering effect of the present compounds, a test for evaluation of intraocular pressure-lowering effect by intracameral administration of a drug using male Japanese White rabbits was performed.
A test compound was dissolved or suspended in physiological saline containing 0.5% dimethyl sulfoxide, whereby a 0.1 mM or 1 mM test compound administration liquid was prepared.
One drop of 0.4% oxybuprocaine hydrochloride eye drop was instilled into both eyes of each male Japanese White rabbit to achieve local anesthesia, and thereafter, the intraocular pressure was measured using an applanation tonometer. Then, by using a syringe fitted with a 30-gauge needle, the test compound administration liquid (20 μL) was intracamerally administered to one eye. As a control, 20 μL of the vehicle (physiological saline containing 0.5% dimethyl sulfoxide) for the test compound was intracamerally administered. After the lapse of a certain period of time from the administration of the test compound or vehicle, one drop of 0.4% oxybuprocaine hydrochloride eye drop was instilled into the administered eye to achieve local anesthesia, and thereafter, the intraocular pressure was measured using an applanation tonometer.
The intraocular pressure-lowering effect of each test compound was evaluated by calculating an intraocular pressure reduction rate. The intraocular pressure reduction rate (%) was calculated using the following equation.
(Intraocular Pressure Reduction Rate(%))=100×[{(Average Value of Intraocular Pressure of Control Group)−(Average Value of Intraocular Pressure of Each Test Compound Administration Group)}/(Average Value of Intraocular Pressure of Control Group)]

SMILES: Nc1ccccc1NC(=O)c1ccc(CNc2nccc(-c3cccnc3)n2)cc1 [MGCD-0103 free base, N-(2-Aminophenyl)-4-[4-(pyridin-3-yl)pyrimidin-2-ylaminomethyl]benzamide, reference compound]
- Enzyme Inhibitory Rate (%) [1]: 96%
- CSI [2]: 0.584
- Intraocular Pressure Reduction Rate (%) [3]: 23%

SMILES: CN(C)CCN(Cc1ccc(C(=O)Nc2ccccc2N)nc1)C(=O)Nc1nccs1 [Compound 1-96, N-(2-Aminophenyl)-5-[1-(2-dimethylaminoethyl)-3-(1,3-thiazol-2-yl)ureidomethyl]pyridine-2-carboxylic acid amide]
- Enzyme Inhibitory Rate (%) [1]: 98%
- CSI [2]: 0.489
- Intraocular Pressure Reduction Rate (%) [3]: 18%

SMILES: CC(/C=C/C(=O)NO)=C\[C@@H](C)C(=O)c1ccc(N(C)C)cc1 [Trichostatin A, reference compound]
- Enzyme Inhibitory Rate (%) [1]: 100%
- CSI [2]: 0.496
- Intraocular Pressure Reduction Rate (%) [3]: 18%

SMILES: O=C(CCCCCCC(=O)Nc1ccccc1)NO [SAHA, N-Hydroxy-N′-phenyloctanediamide, reference compound]
- CSI [2]: 0.501
- Intraocular Pressure Reduction Rate (%) [3]: 17%

SMILES: CN(C)CCCN(Cc1ccc(C(=O)Nc2ccccc2N)nc1)C(=O)Nc1nccs1 [Compound 1-41, N-(2-Aminophenyl)-5-[1-(3-dimethylaminopropyl)-3-(1,3-thiazol-2-yl)ureidomethyl]pyridine-2-carboxylic acid amide]
- Enzyme Inhibitory Rate (%) [1]: 96%
- CSI [2]: 0.499

SMILES: CCN(CC)c1ccc(NC(=O)N(CCCN(C)C)Cc2ccc(C(=O)Nc3ccccc3N)nc2)cc1 [Compound 2-3, N-(2-Aminophenyl)-5-[3-(4-diethylaminophenyl)-1-(3-dimethylaminopropyl)ureidomethy]pyridine-2-carboxylic acid amide]
- Enzyme Inhibitory Rate (%) [1]: 100%
- CSI [2]: 0.550

SMILES: Nc1ccccc1NC(=O)c1ccc(CN(CCCN2CCOCC2)C(=O)Nc2ccc3c(c2)CCO3)cn1 [Compound 1-38, N-(2-Aminophenyl)-5-[3-(2,3-dihydro-1-benzofuran-5-yl)-1-[3-(morpholin-4-yl)propyl]ureidomethyl]pyridine-2-carboxylic acid amide]
- Enzyme Inhibitory Rate (%) [1]: 97%
- CSI [2]: 0.575

SMILES: CN(C)CCN(Cc1ccc(C(=O)Nc2ccccc2N)nc1)C(=O)Nc1cccc(F)c1 [Compound 1-55, N-(2-Aminophenyl)-5-[1-(2-dimethylaminoethyl)-3-(3-fluorophenyl)ureidomethyl]pyridine-2-carboxylic acid amide]
- Enzyme Inhibitory Rate (%) [1]: 98%
- CSI [2]: 0.525

SMILES: Nc1ccccc1NC(=O)c1ccc(CNC(=O)OCc2cccnc2)cc1 [MS 275, N-(2-Aminophenyl)-4-(pyridin-3-ylmethyloxycarbonylaminomethyl)benzamide, reference compound]
- Enzyme Inhibitory Rate (%) [1]: 99%
- CSI [2]: 0.552
- Intraocular Pressure Reduction Rate (%) [3]: 13%
